Test results: publication PMC7953027 (Journal of Pesticide Science, 2021)

Key:
[1] = target: T1, Aedes albopictus EcRs (Aedes albopictus, UniProt Q9U3Y4); format: binding; details: for change in binding potency compared to the parent compound: 21, 22, 23 vs. 1, 28, 31 vs. 22; for pIC50 (M): Series II, [3H]PonA binding, NIAS-AeAl-2 cells, 30 min, 25°C, mean±SD
T1 sequence (Q9U3Y4 1-680): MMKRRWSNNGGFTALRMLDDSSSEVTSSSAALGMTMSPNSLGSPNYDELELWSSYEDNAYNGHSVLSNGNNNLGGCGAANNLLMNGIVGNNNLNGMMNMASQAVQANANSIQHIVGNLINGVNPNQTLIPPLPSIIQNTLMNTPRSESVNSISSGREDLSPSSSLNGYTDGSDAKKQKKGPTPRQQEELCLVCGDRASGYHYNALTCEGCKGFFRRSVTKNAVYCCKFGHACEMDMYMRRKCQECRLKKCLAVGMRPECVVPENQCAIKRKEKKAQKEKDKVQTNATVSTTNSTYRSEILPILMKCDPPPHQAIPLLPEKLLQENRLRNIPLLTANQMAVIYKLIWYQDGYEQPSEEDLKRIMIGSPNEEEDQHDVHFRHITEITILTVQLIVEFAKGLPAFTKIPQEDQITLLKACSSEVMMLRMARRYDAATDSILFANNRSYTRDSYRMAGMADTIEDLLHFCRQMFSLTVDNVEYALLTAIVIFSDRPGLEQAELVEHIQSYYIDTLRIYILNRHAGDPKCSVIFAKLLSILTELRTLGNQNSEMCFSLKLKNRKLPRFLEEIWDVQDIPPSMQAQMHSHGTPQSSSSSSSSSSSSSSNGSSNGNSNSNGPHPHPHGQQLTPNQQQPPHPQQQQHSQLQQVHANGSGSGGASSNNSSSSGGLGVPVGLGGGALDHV
T1 sequence (Q9U3Y3 1-485 partner): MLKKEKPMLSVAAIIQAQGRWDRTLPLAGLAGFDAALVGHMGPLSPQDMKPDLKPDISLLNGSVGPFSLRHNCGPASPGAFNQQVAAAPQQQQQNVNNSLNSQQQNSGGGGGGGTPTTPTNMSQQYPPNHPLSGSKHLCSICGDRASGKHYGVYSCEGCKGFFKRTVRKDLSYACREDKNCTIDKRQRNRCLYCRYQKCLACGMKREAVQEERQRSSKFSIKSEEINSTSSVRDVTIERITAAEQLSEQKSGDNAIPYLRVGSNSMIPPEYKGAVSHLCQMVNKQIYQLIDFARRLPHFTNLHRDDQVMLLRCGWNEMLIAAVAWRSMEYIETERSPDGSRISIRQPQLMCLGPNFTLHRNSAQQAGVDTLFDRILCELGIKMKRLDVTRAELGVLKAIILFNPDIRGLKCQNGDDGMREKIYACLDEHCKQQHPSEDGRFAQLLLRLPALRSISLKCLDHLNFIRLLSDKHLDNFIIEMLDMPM

[2] = tested on: A. albopictus larvae; assay: Larvicidal assay on second-instar larvae; format: in vivo, Aedes albopictus; details: for larvicidal activity (in words): 1 µM, 3 days; for mortality at 1 µM / LC50: Aedes albopictus, 72 h; for mortality at 1 µM: read-out: Mortality (%) at 1 µM Obsd.; for LC50: read-out: pLC50 (M) (converted); for Logit A Obsd.: logit-transformed mortality at 1 µM based on Eq. 1

SMILES	change in binding potency compared to the parent compound [1]	pIC50 (M) [1]	larvicidal activity (in words) [2]	mortality at 1 µM [2] [%]	LC50 [2] [M]	Logit A Obsd. [2]
C[C@@H]1C[C@H](Nc2ccccc2)c2cc(F)ccc2N1C(=O)c1ccccn1 [Compound 21, (2R,4S)-6-fluoro-2-methyl-4-(phenylamino)-1-(2-pyridylcarbonyl)-1,2,3,4-tetrahydroquinoline]	threefold loss in potency	5.93±0.08 (2) M	did not show larvicidal activity	0	–	–
C[C@@H]1C[C@H](Nc2ccccc2)c2cc(F)ccc2N1C(=O)c1cccnc1 [Compound 22]	–	6.76±0.15 (2) M	did not show larvicidal activity	0	–	–
C[C@@H]1C[C@H](Nc2ccccc2)c2cc(F)ccc2N1C(=O)c1ccncc1 [Compound 23, (2R,4S)-6-fluoro-2-methyl-4-(phenylamino)-1-(4-pyridylcarbonyl)-1,2,3,4-tetrahydroquinoline]	eightfold gain in potency	7.29±0.03 (2) M	–	36 ± 14	2.57e-06	−0.24
C[C@@H]1C[C@H](Nc2ccccc2)c2cc(F)ccc2N1C(=O)c1ccncn1 [Compound 24]	–	6.67±0.03 (2) M	–	10	–	−0.95
C[C@@H]1C[C@H](Nc2ccccc2)c2cc(F)ccc2N1C(=O)c1ccnnc1 [Compound 25]	–	6.51±0.13 (2) M	–	10	–	−0.95
C[C@@H]1C[C@H](Nc2ccccc2)c2cc(F)ccc2N1C(=O)c1cncnc1 [Compound 26]	–	6.37±0.02 (2) M	–	5	–	−1.28
C[C@@H]1C[C@H](Nc2ccccc2)c2cc(F)ccc2N1C(=O)c1cnc(Cl)nc1 [Compound 27]	–	6.11±0.12 (2) M	–	16	–	−0.72
Cc1ccc(C(=O)N2c3ccc(F)cc3[C@@H](Nc3ccccc3)C[C@H]2C)cn1 [Compound 28]	equipotent	6.64±0.08 (2) M	–	11	–	−0.91
C[C@@H]1C[C@H](Nc2ccccc2)c2cc(F)ccc2N1C(=O)c1ccc(Cl)nc1 [Compound 29]	–	7.09±0.07 (2) M	–	80	4.57e-07	0.60
C[C@@H]1C[C@H](Nc2ccccc2)c2cc(F)ccc2N1C(=O)c1ccc(C(F)(F)F)nc1 [Compound 30]	–	7.03±0.00 (2) M	–	44 ± 24	9.55e-07	−0.10
C[C@@H]1C[C@H](Nc2ccccc2)c2cc(F)ccc2N1C(=O)c1ccc(C#N)nc1 [Compound 31]	sevenfold gain in potency	7.61±0.08 (2) M	–	77 ± 19	5.13e-07	0.51
C[C@@H]1C[C@H](Nc2ccccc2)c2cc(F)ccc2N1C(=O)c1ccnc(F)c1 [Compound 32]	–	7.47±0.08 (2) M	–	74 ± 11	4.68e-07	0.44
C[C@@H]1C[C@H](Nc2ccccc2)c2cc(F)ccc2N1C(=O)c1ccnc(C(F)(F)F)c1 [Compound 34]	–	6.56±0.04 (2) M	did not show larvicidal activity	0	–	–
C[C@@H]1C[C@H](Nc2ccccc2)c2cc(F)ccc2N1C(=O)c1ccnc(C#N)c1 [Compound 35]	–	6.55±0.07 (2) M	did not show larvicidal activity	0	–	–
